According to patent US20240336653A1, “PEPTIDE COMPOUND TARGETING ELASTIN-DERIVED PEPTIDES AND USE THEREOF” (Shenzhen Turier Biotech Co., Ltd., priority 2020, published 2024):
*1 amine or outer side, *2 acyl side, *3 side chain or, on linkers, in order; H or OH if unused. Primed or numbered codes have the meaning given here. Where no end group is shown, it is not given here. [ ]: non-standard residue; d: D form. The star is where a group is joined. C20 diacid = O=C(O)CCCCCCCCCCCCCCCCCCC(=O)*; γGlu = O=C(O)[C@H](CCC(=O)[*:2])N[*:1]; Iva = CC[C@](C)(N)C(=O)O; PEG2′ = not defined here

Key:
LX2 cells = assay: Activity evaluation in LX2 cell model (α-SMA protein expression); format: cell-based, human; conditions: 1.0 μM and 10.0 μM, 48 hours incubation, GAPDH internal reference, FIG. 1
Source text: In LX2 cell model (which can be directly used as the evaluation model of hepatic fibrosis cells in vitro, because LX2 cells are human liver activated stellate cells. The LX2 cells are purchased from China Center for Type Culture Collection of the Chinese Academy of Sciences, Shanghai, China), the anti-fibrosis activities of peptide compounds 1-25 are preliminarily screened, and the expression of the marker α-SMA protein of myofibroblast activation is detected. The peptide compounds 1-25 is subjected to cell incubation for 48 hours by using two concentrations (1.0 μM and 10.0 μM). The control group is given the same volume of Dulbecco's modified Eagle medium (DMEM) (purchased from Gibco in the United States), and GAPDH (purchased from TransGen Biotech) as the internal reference, α-actin (α-SMA) is a symbolic feature that distinguishes myoblast cells from myofibroblasts.

[1] = tested on: CCl4 induced hepatic fibrosis; assay: Carbon tetrachloride (CCl4) induced hepatic fibrosis model in mice; format: in vivo, C57BL/6J mice; conditions: 100.0 μg/kg intraperitoneal, 3 weeks of administration; for aggregation of inflammatory cells in the liver (HE staining) / hepatic fibrosis of mice: FIG. 2; for expression of Collagen I in the liver (immunohistochemistry): FIG. 3; for collagen deposition in the liver (Sirius red staining): FIG. 4
Protocol: Molding method: 72 male C57BL/6J mice, male, 18-22 g in weight and 8 weeks old, provided by Laboratory Animal Center, Sun Yat-sen University, randomly divided into 12 groups: 1) control group (Oil)+saline, intraperitoneal injection, n=6; 2) model control group (CCl4)+saline, intraperitoneal injection, n=6; administration of CCl4 to mice once every three days for 6 weeks; 3) model administration group (CCl4)+100.0 μg/kg series of compounds (group 10), intraperitoneal injection, n=6/group. The mice in the control group are injected with corn oil at the same volume and frequency according to the administration volume of 20% CCl4 at the weight of 5.0 μL/g. Administration frequency: administration of CCl4 to mice once every three days for 6 weeks. After 3 weeks of administration of CCl4 to mice in the model administration group, peptide compounds 1, 5, 7, 11, 12, 13, 17, 18, 21 and 22 are administered for 3 weeks from the 4th week. CCl4 and Oil are purchased from Shanghai Aladdin Biochemical Technology Co., Ltd.
In the CCl4 induced hepatic fibrosis model, the manifestations are: inflammatory cell infiltration around the central vein area, hydropic degeneration of hepatic cells, and increased accumulation of collagen fibers in the portal area and the hepatic interlobular septum. After three weeks of administration, the mice are treated and sampled. Blood is taken from the retrobulbar vein for detection of serological indicators, and liver tissue is taken for pathological analysis.
(§1) Hematoxylin-eosin (H&E) staining: paraffin embedded tissue sections are taken and baked at 60° C. for 1 h. Dewaxing and hydration: xylene for 20 minutes→xylene for 20 minutes→absolute alcohol for 15 minutes→absolute alcohol for 15 minutes→95% alcohol for 10 minutes→90% alcohol for 5 minutes→80% alcohol for 5 minutes. Staining: hematoxylin for 7 minutes→rinsing with tap water→differentiation with 1% hydrochloric acid alcohol for 1 s→rinsing with tap water→eosin staining for 15 s-20 s→rinsing with tap water. Dehydration and transparency: 75% alcohol for 1 s→85% alcohol for 1 s→95% alcohol for 1 s→100% alcohol for 1 s→xylene for Is→xylene for 1 s. The sections are aired for 30 minutes and sealed with gum.
Sirius red staining: drying and dewaxing; standing for 5.0 minutes in double distilled water; Sirius red staining for 60-80 minutes in a dark room; washing for 5 s with 0.5% glacial acetic acid; dehydration and transparency, sealing and taking photos.
Immunohistochemistry: drying sections, dewaxing, and then soaking in double distilled water for 5 minutes. Antigen retrieval: putting the shelf where pathological sections are placed into a beaker containing citric acid buffer (PH=6.0), and keeping it under high temperature and pressure for 15 minutes; taking out the beaker and letting it stand at room temperature until the temperature drops to the room temperature, then taking out the sections and putting them into 3.0% hydrogen peroxide for 10 minutes to block the endogenous peroxidase activity, and then washing them with PBS for three times, 5 minutes each time; sealing the tissues with 1.0% BSA for 1 h; removing 1.0% BSA, adding Collagen I antibody on the tissue according to the proportion recommended in the Description, and staying overnight at 4° C.; taking out the pathological sections next day, adding the second antibody with horseradish peroxidase after the room temperature is restored, incubating it at 37° C. for 60 minutes, and then use DAB (diaminobenzidine) ([…], USA) to develop color; and re-staining with hematoxylin staining solution, washing with tap water for 5 minutes, differentiating with 1% hydrochloric acid alcohol, then washing with tap water for 5 minutes again, dehydrating, airing, sealing, and taking photos (H&E staining solution and Sirius red staining solution are purchased from Sangon Biotech (Shanghai) Co., Ltd., and Collagen I antibody is purchased from CST Corporation).

[2] = tested on: bleomycin induced pulmonary fibrosis; assay: Bleomycin (BLM) induced pulmonary fibrosis model in mice; format: in vivo, C57BL/6J mice; conditions: 150 μg/kg daily intraperitoneal, 14 days, FIG. 5; for degree of pulmonary fibrosis (H&E staining and Masson staining): compared with bleomycin control group; for fibronectin in pulmonary parenchyma (α-SMA and Collagen1 immunohistochemistry): compared with bleomycin group
Protocol: (§2) Molding method: 78 male C57BL/6J mice, 16-18 g in weight and 6-8 weeks old, provided by Laboratory Animal Center, Sun Yat-sen University, randomly divided into 13 groups: 1) normal control group (Normal), n=6; 2) sham-operated saline control group (Saline), n=6; 3) bleomycin model group (BLM), n=6; and 4) model treatment group: administration of 150 μg/kg series compounds to mice, 10 groups in total, n=6/group. On the 7th day after the operation of bleomycin induced pulmonary fibrosis in mice, mice in the model treatment group are treated with drugs (administration frequency: daily administration/150 μg/kg, intraperitoneal injection). Samples are taken 14 days after administration, and pathological observations are recorded.
(§3) The bleomycin (purchased from TCI Shanghai)) induced pulmonary fibrosis model manifests the following pathological features: bronchiectasis, hydropic degeneration of bronchial epithelial cells, obvious edema and widening of alveolar interstitium, and deposition of a large number of fibroblasts and collagen tissue. The alveolar structure almost completely disappears, filled with fibrous connective tissue, and accompanied by inflammatory cell infiltration. After 14 days of administration, the mice in the model treatment group are treated and sampled. Blood is taken from the retrobulbar vein for detection of serological indicators, and […] is taken for pathological analysis.
as §1, with “H&E” for “Hematoxylin-eosin (H&E)”, “1 s→xylene” for “Is→xylene”
Masson staining: drying and dewaxing; mordanting; adding celestine blue staining solution for 2-3 min, and washing with water; adding Mayer hematoxylin staining solution and washing with water; differentiating with acid alcohol differentiation liquid for several seconds, and washing with tap water; adding ponceau magenta staining solution and washing with distilled water; treating with phosphomolybdic acid solution; adding aniline blue staining solution for 5 min; treating with weak acid solution for 2 min; dehydration and transparency, airing and sealing with gum.
Immunohistochemistry: drying sections, dewaxing, and then soaking in double distilled water for 5 minutes. […]

MMP9 = assay: ELISA of MMP9 in serum of mice of the bleomycin model; format: in vivo, C57BL/6J mice; conditions: BLM mice, 150 μg/kg daily intraperitoneal, 14 days, FIG. 6-A
Protocol: as §2, §3
(§4) The occurrence and development of fibrotic diseases are related to TGF-β and MMP-9 induced EMT process. Matrix metalloproteinases (MMPs) are matrix degrading proteases that degrade all components of extracellular matrix. They participate in the pathophysiological process of pulmonary fibrosis, play an important role in the abnormal remodeling of extracellular matrix and destruction of basement membrane, and promote the recruitment of inflammatory cells and fibroblasts. The increased expression of MMP-9 in pulmonary fibrosis animal models and patients, higher than the normal MMP-9 level, may destroy normal tissue structure and increase the migration of inflammatory cells to the disease site. In order to further explore the inhibitory mechanism of polypeptide drugs on bleomycin induced pulmonary fibrosis, we detect the expression of TGFβ, MMP9 cell factors in serum of mice in each group by ELISA. […] We speculate that its mechanism should be related to TGF-β.

TGF-β = assay: ELISA of TGFβ in serum of mice of the bleomycin model; format: in vivo, C57BL/6J mice; conditions: BLM mice, 150 μg/kg daily intraperitoneal, 14 days, FIG. 6-B
Protocol: as §2, §3, §4

| Substance | inhibiting and improving the activity of α-SMA (expression of α-SMA protein) (LX2 cells) | aggregation of inflammatory cells in the liver (HE staining) [1] | hepatic fibrosis of mice [1] | expression of Collagen I in the liver (immunohistochemistry) [1] | collagen deposition in the liver (Sirius red staining) [1] | degree of pulmonary fibrosis (H&E staining and Masson staining) [2] | fibronectin in pulmonary parenchyma (α-SMA and Collagen1 immunohistochemistry) [2] | concentration of MMP9 in serum of mice (MMP9) | concentration of TGF-β in serum of mice (TGF-β) |
| --- | --- | --- | --- | --- | --- | --- | --- | --- | --- |
| (PEG2-PEG2-γGlu-CO(CH2)18CH3)-Val-Iva-Gly-Ser-Pro-Ser-Ala-Gln-Glu-Glu-Ala-Ser-Pro-Ala-NH2 (V[Iva]GSPSAQEEASPA-NH2; not fully specified (N-terminus); printed as (PEG2-PEG2-γGlu-CO(CH2)18CH3)-Val-Iva-Gly-Ser-Pro-Ser-Ala-Gln-Glu-Glu-Ala-Ser-Pro-Ala-NH2) [Compound 13] | better effects on inhibiting and improving the activity of α-SMA | significantly improved | significantly improved | significant therapeutic improvement | significant therapeutic improvement | significantly reduced | significantly less than that in bleomycin group | significantly reduce | significantly reduce |
| (PEG2-PEG2-γGlu-CO(CH2)18CO2H)-Val-Iva-Gly-Ser-Pro-Ser-Ala-Gln-Asp-Glu-Ala-Ser-Pro-Ala-NH2 ({C20 diacid-γGlu-PEG2′-PEG2′}-V[Iva]GSPSAQDEASPA-NH2) [Compound 5] | better effects on inhibiting and improving the activity of α-SMA | significantly improved | significantly improved | significant therapeutic improvement | significant therapeutic improvement | significantly reduced | significantly less than that in bleomycin group | significantly reduce | significantly reduce |
| (PEG2-PEG2-γGlu-CO(CH2)18CO2H)-Val-Iva-Gly-Ser-Pro-Ser-Ala-Gln-Glu-Glu-Ala-Ser-Pro-Ala-NH2 ({C20 diacid-γGlu-PEG2′-PEG2′}-V[Iva]GSPSAQEEASPA-NH2) [Compound 7] | better effects on inhibiting and improving the activity of α-SMA | significantly improved | significantly improved | significant therapeutic improvement | significant therapeutic improvement | significantly reduced | significantly less than that in bleomycin group | significantly reduce | significantly reduce |
| (PEG2-PEG2-γGlu-CO(CH2)18CO2H)-Val-Iva-Gly-Ser-Pro-Ser-Ala-Gln-Glu-Glu-Ala-Ser-Pro-Leu-NH2 ({C20 diacid-γGlu-PEG2′-PEG2′}-V[Iva]GSPSAQEEASPL-NH2) [Compound 11] | better effects on inhibiting and improving the activity of α-SMA | significantly improved | significantly improved | significant therapeutic improvement | significant therapeutic improvement | significantly reduced | significantly less than that in bleomycin group | significantly reduce | significantly reduce |
| (PEG2-PEG2-γGlu-CO(CH2)18CO2H)-Val-Val-Gly-Ser-Pro-Ser-Ala-Gln-Asp-Glu-Ala-Ser-Pro-Leu-NH2 ({C20 diacid-γGlu-PEG2′-PEG2′}-VVGSPSAQDEASPL-NH2) [Compound 1] | better effects on inhibiting and improving the activity of α-SMA | significantly improved | significantly improved | significant therapeutic improvement | significant therapeutic improvement | significantly reduced | significantly less than that in bleomycin group | significantly reduce | significantly reduce |
